Experimental findings from article PMC7408072 (Pharmaceutics, 2020) are described below.

Molecules are shown by their SMILES. Peptide text beside a SMILES is read from it. * marks the point of attachment. 5TAMRA = CN(C)c1ccc2c(c1)Oc1cc(N(C)C)ccc1C21OC(=O)c2cc(C(=O)*)ccc21

Data set [1] in a line: Peptide stability in serum-containing cell media. The note with it: differentiation medium with 10% FBS, 37 °C, 100 µM peptide, urea/TCA-acetone protein precipitation, UPLC C18, UV 214 and 498 nm, mean ± SD, N = 2. Format: in vitro ADME, bovine. The procedure: Samples (20 µL) were withdrawn at 0, 15, 30, 60, 120, 180, and 240 min. At room temperature, 50 µL of 6 M urea was added for 10 min to denature plasma proteins. To precipitate plasma proteins, 50 µL of 20% (w/v) trichloroacetic acid in acetone was added and the sample incubated at −20 °C for 10 min. The samples were spun down at 10,000× g for 5 min at 5 °C. The acetone phase containing the TAMRA-peptides was filtered (pore size 0.22 µm) prior to analysis by UPLC using a Waters Acquity system with a C18 BEH reverse phase column (BEH C18 column, 2.1 mm × 50 mm × 1.7 µm). Mobile phase A consisted of 95% ultrapure water and 5% acetonitrile (ACN) with 0.1% trifluoroacetic acid (TFA) and mobile phase B of 95% ACN and 5% ultrapure water with 0.1% TFA. A linear gradient was used (min/%B): 0/5%, 12/45%, 12.1/100%, 13/100%, 13.1/5%, 15/5%, with a flow rate of 0.45 mL/min over 15 min with UV detection at 214 and 498 nm. Lower limits of detection are 6.2 µM for TAMRA-NR2B9c, 0.8 µM for TAMRA-Tat, 1.6 µM for TAMRA-Tat-NR2B9c, and 1.6 µM for TAMRA-Tat-N-dimer.

Data set [2] has as its system filter-grown BCECs co-cultured with rat astrocytes. Put plainly: Cellular viability, XTT assay. The format is cell-based. The note with it: 100 µM peptide, 3 h, bovine BCEC/rat astrocyte co-culture, N = 3, n = 3. How it is done: Briefly, the XTT labelling mixture was prepared by mixing electron coupling reagent with XTT labelling reagent at a 1:50 ratio. After peptide incubation, the monolayers were washed twice with 37 °C hHBSS. We applied 300 µL and 1 mL 37 °C hHBSS to the apical and basolateral compartments, respectively, prior to the addition of 150 µL XTT labelling mixture. The filters were incubated at 37 °C with horizontal shaking (90 rpm) for 1 h. Two 100 µL samples were withdrawn from the apical compartments and the absorbance measured at 466 nm using a SPECTROstar Nano plate reader (BMG Labtech, Offenburg, Germany). The relative cell viability was calculated as follows: Relative viability (%)=Asample−ASDS/Abuffer−ASDS×100% where Asample is the absorbance of the test sample, ASDS is the absorbance of the negative control (100% dead cells), and Abuffer is the absorbance of the positive control (100% viable cells).
On the technique in general: Tetrazolium dyes change colour on reduction, which living cells bring about.

The subject of data set [3] is monocultures of primary bovine BCECs. Kind of data set: Live cell peptide uptake. Format: cell-based. The note with it: 1 h, 37 °C, live cell imaging; 100 µM TAMRA-NR2B9c, 50 µM Tat peptides (method) / 100 µM (Figure 4 legend). The procedure: BCECs were obtained from a batch of isolated capillary fragments and cultured as described in Section 2.2. Following trypsinization on day 5, the BCECs were re-suspended in differentiation medium and 90,000/cm^2 seeded on collagen- and fibronectin-coated (both 10 µg/mL in PBS) LabTek® microscope slides (Merck, Søborg, Denmark). The cells were left in the incubator (10% CO2, 37 °C) for 48 h prior to use. […] The test solutions were removed and pre-warmed media containing 300 nM Hoechst and Lysotracker® (1:20,000; Thermo Fischer Scientific, Bedford, MA, USA) applied to the cells for 10 min at 37 °C. The cells were gently washed twice in 37 °C hHBSS and immediately imaged in FluoBrite medium (Thermo Fischer Scientific, Bedford, MA, USA). Images were captured using an Olympus IX-83 fluorescent microscope (Olympus, Hamburg, Germany) equipped with a Yokogawa CSU-X spinning disc unit (Yokogawa, Tokyo, Japan) and Andor iXon Ultra 897 camera (Oxford Instruments, Abingdon, Great Britain) using cellSens software (Olympus, Hamburg, Germany).

A short description of data set [4]: Tissue distribution. Format: in vivo, NMRI mice. The procedure:
Following 1 h of circulation, the mice were deeply anesthetized by i.p. injection of 0.05 mL/10 g body weight Ketaminol/Dexdormitor (2.25 mg ketamine/0.03 mg […] per 10 g body weight in 0.9% NaCl). The chest cage was opened and the mice transcardially perfused with 0.01 M PBS (pH 7.4) prior to isolation of the brain, heart, lungs, spleen, kidney, liver, and 2 cm of the upper part of the intestine. All tissues were immediately put on ice and kept at −80 °C until analysis.
The tissues were homogenized in 1 mL of ice-cold lysis buffer using a 7-mL Dounce tissue grinder set (Merck, St. Louis, MO, USA). Homogenates were left on ice for 10 min prior to centrifugation at 14,000× g and 4 °C for 10 min. Supernatants (100 µL) were transferred to a black clear-bottom 96-well plate for quantification of the TAMRA-peptides using a NovoStar fluorescence plate reader (BMG Labtech, Offenburg, Germany) with excitation and emission set to 542 and 568 nm, respectively. The molar peptide amounts were calculated using standard curves that were freshly prepared in lysates from relevant blank tissue at concentrations ranging from 30 nM to 2 µM.

[5] abbreviates: 3 nmol/g i.v., 1 h, NMRI mice, comparison among the Tat-conjugates.

In the case of `CC[C@H](C)[C@H](NC(=O)[C@H](CO)NC(=O)[C@H](CO)NC(=O)[C@H](CC(C)C)NC(=O)[C@H](CCCCN)NC(=O)c1ccc2c(c1)C(=O)OC21c2ccc(N(C)C)cc2Oc2cc(N(C)C)ccc21)C(=O)N[C@@H](CCC(=O)O)C(=O)N[C@@H](CO)C(=O)N[C@@H](CC(=O)O)C(=O)N[C@H](C(=O)O)C(C)C` [TAMRA-NR2B9c] (5TAMRA-KLSSIESDV-OH), in data set [1], the “% of the initial concentration remaining after 4 h of incubation in serum-supplemented cell media” value (“% of the initial concentration remaining” below) is 92.0% ± 12.6%. For the same molecule, the “cell viability compared to media-treated control cells” value in data set [2] was “did not decrease cell viability”. Moreover, the “peptide uptake into live BCECs” value in data set [3] was “No uptake”.

Turning to `CC[C@H](C)[C@H](NC(=O)CCOCCOCCN(CCOCCOCCC(=O)N[C@H](C(=O)N[C@@H](CCC(=O)O)C(=O)N[C@H](C(=O)N[C@@H](CC(=O)O)C(=O)N[C@H](C(=O)O)C(C)C)[C@@H](C)O)[C@@H](C)CC)C(=O)[C@H](CCCNC(=N)N)NC(=O)[C@H](CCCNC(=N)N)NC(=O)[C@H](CCCNC(=N)N)NC(=O)[C@H](CCC(N)=O)NC(=O)[C@H](CCCNC(=N)N)NC(=O)[C@H](CCCNC(=N)N)NC(=O)[C@H](CCCCN)NC(=O)[C@H](CCCCN)NC(=O)[C@H](CCCNC(=N)N)NC(=O)CNC(=O)[C@H](Cc1ccc(O)cc1)NC(=O)c1ccc2c(c1)C(=O)OC21c2ccc(N(C)C)cc2Oc2cc(N(C)C)ccc21)C(=O)N[C@@H](CCC(=O)O)C(=O)N[C@H](C(=O)N[C@@H](CC(=O)O)C(=O)N[C@H](C(=O)O)C(C)C)[C@@H](C)O` [TAMRA-Tat-N-dimer], the “% of the initial concentration remaining” value in data set [1] was 88.1% ± 1.8%. The “cell viability compared to media-treated control cells” value in data set [2] is recorded as “slight, but non-significant, decrease”. Besides, the “peptide uptake into live BCECs” value in data set [3] is “taken up into vesicular structures to a similar extent”. Also, in data set [4] (setting [5]), the “TAMRA fluorescence in the kidney” value is listed as “more fluorescence in the kidney than TAMRA-Tat or TAMRA-Tat-NR2B9c”. Moreover, in data set [4] (male, NMRI, mouse, brain, iv, 3 nmol/g body weight, mice, tissue distribution (abstract), read-out: brain accumulation), the tissue uptake at 1 h stood at 0.25 %ID/g.

As for `CC[C@H](C)[C@H](NC(=O)[C@H](CO)NC(=O)[C@H](CO)NC(=O)[C@H](CC(C)C)NC(=O)[C@H](CCCCN)NC(=O)[C@H](CCCNC(=N)N)NC(=O)[C@H](CCCNC(=N)N)NC(=O)[C@H](CCCNC(=N)N)NC(=O)[C@H](CCC(N)=O)NC(=O)[C@H](CCCNC(=N)N)NC(=O)[C@H](CCCNC(=N)N)NC(=O)[C@H](CCCCN)NC(=O)[C@H](CCCCN)NC(=O)[C@H](CCCNC(=N)N)NC(=O)CNC(=O)[C@H](Cc1ccc(O)cc1)NC(=O)c1ccc2c(c1)C(=O)OC21c2ccc(N(C)C)cc2Oc2cc(N(C)C)ccc21)C(=O)N[C@@H](CCC(=O)O)C(=O)N[C@@H](CO)C(=O)N[C@@H](CC(=O)O)C(=O)N[C@H](C(=O)O)C(C)C` [TAMRA-Tat-NR2B9c] (5TAMRA-YGRKKRRQRRRKLSSIESDV-OH), in data set [1], the “% of the initial concentration remaining” value was 34.3% ± 1.7%. The “cell viability compared to media-treated control cells” value in data set [2] was “slight, but non-significant, decrease”. Further, in data set [3], the “peptide uptake into live BCECs” value is “taken up into vesicular structures to a similar extent”. Also, in data set [4] (setting [5]), the “accumulation in the liver” value was “to a greater extent than TAMRA-Tat and TAMRA-Tat-N-dimer”.

Turning to `CN(C)c1ccc2c(c1)Oc1cc(N(C)C)ccc1C21OC(=O)c2cc(C(=O)N[C@@H](Cc3ccc(O)cc3)C(=O)NCC(=O)N[C@@H](CCCNC(=N)N)C(=O)N[C@@H](CCCCN)C(=O)N[C@@H](CCCCN)C(=O)N[C@@H](CCCNC(=N)N)C(=O)N[C@@H](CCCNC(=N)N)C(=O)N[C@@H](CCC(N)=O)C(=O)N[C@@H](CCCNC(=N)N)C(=O)N[C@@H](CCCNC(=N)N)C(=O)N[C@@H](CCCNC(=N)N)C(=O)O)ccc21` [TAMRA-Tat], the “% of the initial concentration remaining” value in data set [1] was 56.0% ± 8.9%. Besides, in data set [2], the “cell viability compared to media-treated control cells” value is listed as “slight, but non-significant, decrease”. In addition, in data set [3], the “peptide uptake into live BCECs” value was “taken up into vesicular structures to a similar extent”. In addition, the “amount in mouse brain homogenate” value in data set [4] (3 nmol peptide/g body weight, tail vein, 1 h circulation, perfused NMRI mice, TAMRA fluorescence in whole tissue homogenate, mean ± SD, N = 4-6) was 0.4% ± 0.1%. Further, the “accumulation in the intestines” value in data set [4] (setting [5]) is recorded as “superior”. Also, in data set [4] (3 nmol/g i.v., 1 h, NMRI mice, unpaired t-test), the “TAMRA fluorescence in the brain homogenates (comparison)” value is reported as “slightly higher levels”.
